Bounds are passed on as bounds.

Assay [1] deals with T1, Syk (Homo sapiens, UniProt P43405). In words: Syk kinase inhibition (Syk IC50 of Table 1). It is filed as biochemical.
The target in a further assay is T2, JAK1 (Homo sapiens, UniProt P23458).
T2 construct: 5 μl of catalytic domain recombinant Kinase enzyme+Tyr peptide substrate (Invitrogen, Calif.); purchased Invitrogen
Put plainly: Z'-LYTE kinase assay, JAK1 tyrosine phosphorylation activity. Type of assay: biochemical. The conditions noted are these: read-out: JAK 1 IC50. The procedure, abridged: (§1)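 Inhibition is expressed as substrate phosphorylation relative to inhibitor-free wells, fitted with a 4-parameter logistic model for IC50. Reactions contain catalytic-domain kinase, Tyr6 peptide and ATP, run 1 h at room temperature. Development protease is added for 1 h before fluorescence readout.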

The next assay deals with T3, JAK2 (Homo sapiens, UniProt O60674).
T3 construct: 5 μl of catalytic domain recombinant Kinase enzyme+Tyr peptide substrate (Invitrogen, Calif.); purchased Invitrogen
T3 sequence (O60674 849-1124 limits assumed): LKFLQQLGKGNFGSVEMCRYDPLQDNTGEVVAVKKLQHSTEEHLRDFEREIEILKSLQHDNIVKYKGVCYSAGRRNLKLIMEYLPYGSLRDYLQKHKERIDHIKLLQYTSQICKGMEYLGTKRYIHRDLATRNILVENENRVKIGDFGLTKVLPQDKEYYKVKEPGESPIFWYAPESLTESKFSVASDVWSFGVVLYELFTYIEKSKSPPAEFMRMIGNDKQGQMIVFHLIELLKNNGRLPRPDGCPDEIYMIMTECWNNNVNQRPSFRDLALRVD
In words: Z'-LYTE kinase assay, JAK2 tyrosine phosphorylation activity. Type of assay: biochemical. The procedure, abridged:
as §1

A further assay concerns the target T4, JAK3 (Homo sapiens, UniProt P52333).
T4 construct: 5 μl of catalytic domain recombinant Kinase enzyme+Tyr peptide substrate (Invitrogen, Calif.); purchased Invitrogen
In words: Z'-LYTE kinase assay, JAK3 tyrosine phosphorylation activity. It is filed as biochemical. The procedure, abridged:
as §1

Assay [2] concerns the target T1, Syk. In words: Syk IC50 (Table 1; method not given). It is filed as biochemical.
The subject of assay [3] is IL4-induced phospho STAT6 formation in Ramos B lymphocytes. In words: Inhibition of IL4-induced phospho STAT6 formation in Ramos B lymphocytes (flow cytometry). Type of assay: cell-based, human. To be noted: Homo sapiens; for inhibition at 0.2 µM: 200 nM compound, read-out: % Inhibition of IL-4 Induced STAT6 Phosphorylation 200 nM; for inhibition at 1 µM: 1 μM compound, read-out: % Inhibition of IL-4 Induced STAT6 Phosphorylation 1 μM. The procedure, abridged: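 Human Ramos B cells (0.5 million) pre-incubated 1 h at 37°C/5% CO2 with compound or DMSO, then stimulated with 1 ng/ml IL4 for 10 min. Cells were PFA-fixed, methanol-permeabilized and stained with Alexa-anti-phosphoSTAT6 (Y641); flow cytometry mean fluorescence gave percent inhibition of the IL4 signal.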
On the technique in general: In flow cytometry, cells or beads pass a laser one at a time.

Another assay has as its target T5, TYK2 (Homo sapiens, UniProt P29597).
T5 construct: 5 μl of catalytic domain recombinant Kinase enzyme+Tyr peptide substrate (Invitrogen, Calif.); purchased Invitrogen
T5 sequence (P29597 897-1176 limits assumed): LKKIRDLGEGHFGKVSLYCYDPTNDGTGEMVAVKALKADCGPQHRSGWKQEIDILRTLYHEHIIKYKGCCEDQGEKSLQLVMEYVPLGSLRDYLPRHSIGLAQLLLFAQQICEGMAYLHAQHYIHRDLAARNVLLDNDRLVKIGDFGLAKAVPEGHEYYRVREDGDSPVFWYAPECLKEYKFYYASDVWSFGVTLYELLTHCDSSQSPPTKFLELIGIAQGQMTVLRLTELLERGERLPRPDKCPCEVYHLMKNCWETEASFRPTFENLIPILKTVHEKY
Put plainly: Z'-LYTE kinase assay, TYK2 tyrosine phosphorylation activity. Type of assay: biochemical. The procedure, abridged: as §1

T4 sequence (P52333 822-1111 limits assumed): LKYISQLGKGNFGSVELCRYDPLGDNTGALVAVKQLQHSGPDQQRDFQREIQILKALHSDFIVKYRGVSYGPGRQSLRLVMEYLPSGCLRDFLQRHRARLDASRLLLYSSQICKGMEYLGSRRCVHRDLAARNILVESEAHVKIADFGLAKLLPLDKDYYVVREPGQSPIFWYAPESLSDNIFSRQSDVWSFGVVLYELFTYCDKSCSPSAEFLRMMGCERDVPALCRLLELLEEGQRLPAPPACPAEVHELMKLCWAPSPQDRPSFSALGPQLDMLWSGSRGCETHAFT
T2 sequence (P23458 875-1153 limits assumed): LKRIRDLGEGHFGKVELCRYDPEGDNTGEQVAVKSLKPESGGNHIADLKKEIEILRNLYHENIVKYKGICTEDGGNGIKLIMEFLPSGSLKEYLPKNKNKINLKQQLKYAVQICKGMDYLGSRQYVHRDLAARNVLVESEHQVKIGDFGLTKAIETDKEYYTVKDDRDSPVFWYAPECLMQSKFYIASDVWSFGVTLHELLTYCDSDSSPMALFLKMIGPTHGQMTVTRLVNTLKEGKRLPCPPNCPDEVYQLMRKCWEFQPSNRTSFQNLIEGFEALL

What is called IC50 is the point on the concentration scale where inhibition reaches its midpoint. `CC(=O)Nc1cccc(Nc2cc(NCc3ccccc3F)c(C(N)=O)cn2)c1` [Example 340, 6-(3-acetamidophenylamino)-4-(2-fluorobenzylamino)nicotinamide]: the IC50 on Syk [1] was above 1 µM; on JAK1 it was 0.1 to 1 µM; against JAK2, 0.1 to 1 µM; against JAK3 it was 0.01 to 0.1 µM.

For the molecule `CN(C)[C@@H]1CCN(C(=O)Nc2cccc(Nc3cc(N[C@H](CO)c4ccccc4)c(C(N)=O)cn3)c2)C1` [Example 312, 6-(3-((R)-3-(dimethylamino)pyrrolidine-1-carboxamido)phenylamino)-4-((S)-2-hydroxy-1-phenylethylamino)nicotinamide], the 50% inhibitory concentration (IC50) against Syk [1] is above 1 µM; on JAK1 it was above 1 µM; against JAK2 it was 0.1 to 1 µM; on JAK3 it was 0.001 to 0.01 µM.

As usually defined, the inhibition is the change of the read-out against control, counted positive when it falls. For `CC(=O)Nc1cccc(Nc2ncc(C(N)=O)c(NCC3CCCN(C(C)=O)C3)n2)c1` (stereo not shown) [Example 119, 2-(3-acetamidophenylamino)-4-((1-acetylpiperidin-3-yl)methylamino)pyrimidine-5-carboxamide], the half-maximal inhibitory concentration (IC50) at Syk [2] was in the range of 0.1 to 1 µM; on JAK1, 0.01 to 0.1 µM; against JAK2, 0.01 to 0.1 µM; on TYK2 it was 0.01 to 0.1 µM; at JAK3, 0.001 to 0.01 µM. Besides, the inhibition at 0.2 µM in assay [3] is 9%. Further, in assay [3], the inhibition at 1 µM came out at 63%.

As to `C[C@@H](Nc1nc(Nc2cccc(NC(=O)N3CC=CC3)c2)ncc1C(N)=O)c1ccccc1` [Example 121, (R)-2-(3-(2,5-dihydro-1H-pyrrole-1-carboxamido)phenylamino)-4-(1-phenylethylamino)pyrimidine-5-carboxamide], the 50% inhibitory concentration (IC50) was above 1 µM against Syk [2]; 0.1 to 1 µM on JAK1; 0.01 to 0.1 µM against JAK2; 0.01 to 0.1 µM against TYK2; 0.001 to 0.01 µM against JAK3. In assay [3], the inhibition at 0.2 µM was found to be 18.3%. Further, the inhibition at 1 µM in assay [3] was 61.7%.
